Activity calls are given as the source filed them.
Columns and labels:
[1] = target: Exodeoxyribonuclease V (Escherichia coli (strain K12), UniProt P04993+P07648+P08394); experiment: RecBCD inhibition via phage-restricted bacterial growth – absorbance, V66 E. coli, mutant T4 phage, counter-screen for AddAB inhibitor project, dose response (AID 492957); format: functional, cell-based, Escherichia coli str. K-12 substr. MG1655
[2] = Counterscreen for AddAB inhibitors: absorbance-based bacterial cell-based high throughput dose response assay for inhibitors of bacterial viability. [Related pubchem assays (depositor defined):AID435030, AID449728, AID449731, AID488942, AID488955, AID488956]; format: functional
[3] = target: Tumor necrosis factor (Homo sapiens, UniProt P01375); experiment: analog potency on TNFa NF-kB signaling – cell-based, revised, SAR follow-up (AID 2337); format: functional
Chain of Tumor necrosis factor (P01375 whole entry, the tested form may be a part): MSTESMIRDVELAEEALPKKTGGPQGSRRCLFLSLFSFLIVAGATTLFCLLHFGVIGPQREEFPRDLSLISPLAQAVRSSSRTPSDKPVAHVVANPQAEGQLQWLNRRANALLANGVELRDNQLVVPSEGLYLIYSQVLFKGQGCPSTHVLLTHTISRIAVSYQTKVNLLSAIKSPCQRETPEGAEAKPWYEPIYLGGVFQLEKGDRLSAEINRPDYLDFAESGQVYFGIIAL

[4] = target: Nucleotide-binding oligomerization domain-containing protein 2 (Homo sapiens, UniProt Q9HC29); experiment: PubChem AID 2334; format: functional
[5] = system: HEK293; experiment: cells; conditions: Homo sapiens;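 further: cells exposed to compound for 14 hours overnight before viability readout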
[6] = target: Nucleotide-binding oligomerization domain-containing protein 1 (Homo sapiens, UniProt Q9Y239); experiment: blockers of NOD1 pathway activity – revised, SAR follow-up (AID 2333); format: functional
[7] = target: T1, Kappa-type opioid receptor (Homo sapiens, UniProt P41145); experiment: SAR analysis of small molecule agonists of the kappa opioid receptor via a luminescent beta-arrestin assay. [Related pubchem assays (depositor defined):AID1777, AID1786, AID1966, AID2133, AID2136, AID2348, AID2352, AID2357, AID2359, AID2370, AID2420, AID2478, AID2491, AID2492, AID2493, AID2497, AID2498, AID2500, AID449737, AID488822, AID488842]; format: functional
T1 sequence (P41145 whole entry): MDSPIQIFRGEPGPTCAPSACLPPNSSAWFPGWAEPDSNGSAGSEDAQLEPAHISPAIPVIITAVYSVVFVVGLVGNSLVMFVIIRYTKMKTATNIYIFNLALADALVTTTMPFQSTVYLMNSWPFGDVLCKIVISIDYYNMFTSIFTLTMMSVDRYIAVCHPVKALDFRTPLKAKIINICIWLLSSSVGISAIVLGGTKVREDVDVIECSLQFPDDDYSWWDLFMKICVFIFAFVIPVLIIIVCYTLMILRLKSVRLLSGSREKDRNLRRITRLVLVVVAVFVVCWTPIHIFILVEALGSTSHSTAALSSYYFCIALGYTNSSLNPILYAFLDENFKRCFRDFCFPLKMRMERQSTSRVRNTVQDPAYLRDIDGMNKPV

[8] = target: T2, Mu-type opioid receptor (Homo sapiens, UniProt P35372); experiment: mu opioid receptor blockers – image-based, SAR follow-up (AID 2420); format: functional;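 further: compounds added before stimulation of receptor with agonist DAMGO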
T2 sequence (P35372 whole entry): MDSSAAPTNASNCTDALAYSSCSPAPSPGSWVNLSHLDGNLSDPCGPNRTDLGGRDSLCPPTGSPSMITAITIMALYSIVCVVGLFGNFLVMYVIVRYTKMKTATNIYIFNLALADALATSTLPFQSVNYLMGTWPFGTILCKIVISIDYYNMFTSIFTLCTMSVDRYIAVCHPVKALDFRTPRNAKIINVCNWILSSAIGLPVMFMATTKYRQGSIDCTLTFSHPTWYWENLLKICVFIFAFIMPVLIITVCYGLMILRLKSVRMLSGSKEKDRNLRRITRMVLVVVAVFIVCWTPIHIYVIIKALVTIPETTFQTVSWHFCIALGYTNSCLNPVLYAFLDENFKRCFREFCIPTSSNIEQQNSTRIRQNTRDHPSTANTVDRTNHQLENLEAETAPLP

[9] = target: T1, Kappa-type opioid receptor; experiment: kappa opioid receptor activation potency – imaging, image-based, SAR follow-up (AID 2359); format: functional
[10] = target: T3, Delta-type opioid receptor (Homo sapiens, UniProt P41143); experiment: DOR agonists, SAR follow-up, image-based (AID 2370); format: functional
T3 sequence (P41143 whole entry): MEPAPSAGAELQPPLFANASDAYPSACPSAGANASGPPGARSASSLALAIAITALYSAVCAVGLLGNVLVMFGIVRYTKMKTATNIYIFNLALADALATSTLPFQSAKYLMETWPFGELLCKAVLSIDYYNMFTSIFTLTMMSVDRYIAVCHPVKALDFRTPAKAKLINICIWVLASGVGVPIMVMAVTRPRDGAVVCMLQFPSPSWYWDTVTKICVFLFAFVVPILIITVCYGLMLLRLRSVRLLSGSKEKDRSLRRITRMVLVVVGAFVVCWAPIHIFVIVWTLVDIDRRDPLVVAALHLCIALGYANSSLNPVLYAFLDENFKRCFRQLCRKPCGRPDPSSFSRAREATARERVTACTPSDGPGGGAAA

[11] = target: T3, Delta-type opioid receptor; experiment: delta opioid receptor blockers – image-based, SAR follow-up (AID 2357); format: functional
[12] = target: T1, Kappa-type opioid receptor; experiment: kappa opioid receptor blockers, image-based, SAR follow-up (AID 2348); format: functional
[13] = target: T2, Mu-type opioid receptor; experiment: mu opioid receptor activators, image-based, SAR follow-up (AID 2352); format: functional
[14] = target: 72 kDa type IV collagenase (Homo sapiens, UniProt P08253); experiment: Dose Response validation of uHTS RPN11 inhibitor hits using a MMP-2 Fluorescence assay.; format: functional
[15] = target: T4, Tyrosine-protein phosphatase non-receptor type 22 (Homo sapiens, UniProt Q9Y2R2); experiment: PubChem AID 2135
T4 sequence (Q9Y2R2 whole entry): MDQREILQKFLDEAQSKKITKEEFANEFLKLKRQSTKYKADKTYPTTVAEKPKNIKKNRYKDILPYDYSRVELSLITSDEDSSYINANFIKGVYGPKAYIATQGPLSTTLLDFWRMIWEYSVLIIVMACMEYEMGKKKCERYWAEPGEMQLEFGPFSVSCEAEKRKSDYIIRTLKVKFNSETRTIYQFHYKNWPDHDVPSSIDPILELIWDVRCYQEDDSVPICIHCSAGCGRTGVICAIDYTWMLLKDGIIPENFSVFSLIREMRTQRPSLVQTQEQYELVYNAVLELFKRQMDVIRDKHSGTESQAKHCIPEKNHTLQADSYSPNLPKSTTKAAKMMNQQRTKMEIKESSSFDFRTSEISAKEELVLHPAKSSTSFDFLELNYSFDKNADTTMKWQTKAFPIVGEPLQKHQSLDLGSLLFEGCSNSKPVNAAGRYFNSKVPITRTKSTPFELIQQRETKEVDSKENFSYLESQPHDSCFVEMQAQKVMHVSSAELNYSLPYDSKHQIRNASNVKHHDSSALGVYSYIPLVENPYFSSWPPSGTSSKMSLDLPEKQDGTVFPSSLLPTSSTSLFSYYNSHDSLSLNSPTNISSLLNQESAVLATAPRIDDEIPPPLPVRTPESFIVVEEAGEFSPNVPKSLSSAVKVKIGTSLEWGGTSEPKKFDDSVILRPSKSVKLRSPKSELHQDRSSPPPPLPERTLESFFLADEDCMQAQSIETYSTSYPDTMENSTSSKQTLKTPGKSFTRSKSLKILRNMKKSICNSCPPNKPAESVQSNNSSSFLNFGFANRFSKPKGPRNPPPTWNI

[16] = target: T4, Tyrosine-protein phosphatase non-receptor type 22; format: functional
[17] = target: T4, Tyrosine-protein phosphatase non-receptor type 22; experiment: SAR LYP1 Fluorescent Assay using OMFP substrate for In Vitro dose response studies - Set 3. [Related pubchem assays (depositor defined):AID1779, AID1784, AID2140, AID2686]; format: functional
[18] = target: T5, Tyrosine-protein phosphatase non-receptor type 7 (Homo sapiens, UniProt P35236); experiment: inhibition of hematopoietic tyrosine phosphatase HePTP – biochemical, set 2, SAR follow-up (AID 449736); format: functional
T5 sequence (P35236 whole entry): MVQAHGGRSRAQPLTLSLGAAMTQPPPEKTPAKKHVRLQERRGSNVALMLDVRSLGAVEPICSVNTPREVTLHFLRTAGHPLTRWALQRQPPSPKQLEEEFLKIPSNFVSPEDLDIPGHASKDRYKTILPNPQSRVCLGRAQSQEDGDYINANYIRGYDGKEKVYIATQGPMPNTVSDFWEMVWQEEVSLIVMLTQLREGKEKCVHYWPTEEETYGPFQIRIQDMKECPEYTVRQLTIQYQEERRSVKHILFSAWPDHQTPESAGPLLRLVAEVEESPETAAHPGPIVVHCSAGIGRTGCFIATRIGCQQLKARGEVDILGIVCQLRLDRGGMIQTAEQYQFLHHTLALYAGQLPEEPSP

[19] = target: T4, Tyrosine-protein phosphatase non-receptor type 22; experiment: LYP1 Fluorescent Assay using OMFP substrate for In Vitro dose response studies. [Related pubchem assays (depositor defined):AID1779, AID1784, AID435024]
[20] = target: Prothrombin (Bos taurus, UniProt P00735); experiment: thrombin protease inhibitors – biochemical, fluorescence polarization, uHTS hits, dose response (AID 602369); format: functional
[21] = target: T4, Tyrosine-protein phosphatase non-receptor type 22; experiment: PubChem AID 2140
[22] = target: T5, Tyrosine-protein phosphatase non-receptor type 7; format: functional
[23] = target: T4, Tyrosine-protein phosphatase non-receptor type 22; experiment: SAR LYP1 Fluorescent Assay using OMFP substrate for In Vitro dose response studies - Set 2. [Related pubchem assays (depositor defined):AID1779, AID1784, AID2140, AID449726, AID488869]; format: functional
[24] = target: Envelope glycoprotein gp160 (Human immunodeficiency virus 1, UniProt Q6QLK5); experiment: cell-free HIV fusion peptide-binding blockers – biochemical, uHTS, fluorescence dequenching, […] (AID 1986)
[25] = target: T5, Tyrosine-protein phosphatase non-receptor type 7; experiment: HTS HePTP Fluorescent Assay using OMFP substrate for In Vitro dose response studies. [Related pubchem assays (depositor defined):AID1059, AID1077, AID1784, AID2068, AID2085, AID435032, AID521]; format: functional
[26] = target: 26S proteasome non-ATPase regulatory subunit 14 (Homo sapiens, UniProt O00487); experiment: inhibition of proteasome subunit RPN11 – biochemical, fluorescence polarization, uHTS hits, confirmation (AID 602368); format: functional
Chain of 26S proteasome non-ATPase regulatory subunit 14 (O00487 whole entry): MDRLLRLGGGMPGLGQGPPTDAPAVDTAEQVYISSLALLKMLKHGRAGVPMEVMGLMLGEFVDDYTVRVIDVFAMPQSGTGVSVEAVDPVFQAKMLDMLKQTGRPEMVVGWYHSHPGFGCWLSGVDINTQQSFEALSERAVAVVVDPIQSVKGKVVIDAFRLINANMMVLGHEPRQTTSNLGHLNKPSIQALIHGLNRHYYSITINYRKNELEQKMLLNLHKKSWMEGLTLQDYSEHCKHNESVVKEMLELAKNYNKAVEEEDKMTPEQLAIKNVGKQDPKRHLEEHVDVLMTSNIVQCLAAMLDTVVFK

[27] = target: T4, Tyrosine-protein phosphatase non-receptor type 22; experiment: PTPN22 lymphoid phosphatase activity blockers – biochemical, fluorescence intensity, uHTS (AID 1779)
[28] = target: T6, RNA-binding protein pos-1 (Caenorhabditis elegans, UniProt G5EF15); experiment: disruptors of C. elegans POS-1 RNA interaction – biochemical, fluorescence polarization, dose response (AID 1964);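 further: purified POS-1 fused to maltose binding protein made in E. coli; potency of compounds blocking POS-1 binding to fluorescent RNA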
T6 sequence (G5EF15 whole entry): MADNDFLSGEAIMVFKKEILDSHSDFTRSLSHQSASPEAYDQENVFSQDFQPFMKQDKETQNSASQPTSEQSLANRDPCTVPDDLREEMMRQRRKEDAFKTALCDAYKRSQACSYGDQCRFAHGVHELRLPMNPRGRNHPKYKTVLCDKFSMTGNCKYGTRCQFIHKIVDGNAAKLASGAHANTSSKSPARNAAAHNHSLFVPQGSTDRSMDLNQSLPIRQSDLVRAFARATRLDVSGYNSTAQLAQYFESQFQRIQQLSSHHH

[29] = target: Tyrosine-protein phosphatase non-receptor type 12 (Homo sapiens, UniProt Q05209); experiment: SAR Selectivity Analysis of small molecule inhibitors of PEST using pCAP in a fluorescence assay. [Related pubchem assays (depositor defined):AID1779, AID1784, AID2135]; format: functional
[30] = target: T7, Zinc finger protein mex-5 (Caenorhabditis elegans, UniProt Q9XUB2); experiment: potency of MEX-5 RNA-binding blockers – biochemical, C. elegans, fluorescence polarization, dose response (AID 1960)
T7 sequence (Q9XUB2 whole entry): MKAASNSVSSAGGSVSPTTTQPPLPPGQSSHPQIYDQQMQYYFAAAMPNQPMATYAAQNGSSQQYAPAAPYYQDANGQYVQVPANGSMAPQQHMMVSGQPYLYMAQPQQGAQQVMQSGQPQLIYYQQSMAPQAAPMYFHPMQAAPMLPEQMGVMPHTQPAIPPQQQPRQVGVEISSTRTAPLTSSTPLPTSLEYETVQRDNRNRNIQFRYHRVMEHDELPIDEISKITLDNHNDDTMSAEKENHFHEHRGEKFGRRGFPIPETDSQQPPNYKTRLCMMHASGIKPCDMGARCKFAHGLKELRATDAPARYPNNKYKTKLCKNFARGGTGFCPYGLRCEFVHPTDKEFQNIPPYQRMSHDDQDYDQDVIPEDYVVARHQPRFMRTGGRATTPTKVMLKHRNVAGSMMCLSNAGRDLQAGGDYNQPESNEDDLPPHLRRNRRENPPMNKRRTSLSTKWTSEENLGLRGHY

[31] = target: T4, Tyrosine-protein phosphatase non-receptor type 22; experiment: SAR LYP1 Fluorescent Assay using pCAP substrate for In Vitro dose response studies - Set 2. [Related pubchem assays (depositor defined):AID1779, AID1784, AID2135, AID449727]; format: functional
[32] = CCR5-tropic HIV-1 fusion blockers – cell-based, CCR5-tropic Env, dose response (AID 2279); format: functional
[33] = target: T8, Mannose-6-phosphate isomerase (Homo sapiens, UniProt P34949); experiment: phosphomannose isomerase inhibition – biochemical, fluorescence intensity, confirmation (AID 1535)
T8 sequence (P34949 whole entry): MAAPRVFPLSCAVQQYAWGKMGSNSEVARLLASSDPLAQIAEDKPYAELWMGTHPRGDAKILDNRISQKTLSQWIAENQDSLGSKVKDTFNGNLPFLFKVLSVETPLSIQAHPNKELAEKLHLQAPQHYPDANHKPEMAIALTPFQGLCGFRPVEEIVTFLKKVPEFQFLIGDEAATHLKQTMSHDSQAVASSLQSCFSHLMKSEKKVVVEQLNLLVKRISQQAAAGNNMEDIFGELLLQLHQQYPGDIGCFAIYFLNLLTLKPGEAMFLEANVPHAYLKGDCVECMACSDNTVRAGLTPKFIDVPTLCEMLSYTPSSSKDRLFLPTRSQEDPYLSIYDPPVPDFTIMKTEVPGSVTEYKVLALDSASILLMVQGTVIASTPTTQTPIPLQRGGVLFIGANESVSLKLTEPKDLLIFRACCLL

[34] = target: Phosphomannomutase 2 (Homo sapiens, UniProt O15305); experiment: Counter screen SAR assay for PMM2 inhibitors via a fluorescence intensity assay. [Related pubchem assays (depositor defined):AID1545, AID1574]
Chain of Phosphomannomutase 2 (O15305 whole entry): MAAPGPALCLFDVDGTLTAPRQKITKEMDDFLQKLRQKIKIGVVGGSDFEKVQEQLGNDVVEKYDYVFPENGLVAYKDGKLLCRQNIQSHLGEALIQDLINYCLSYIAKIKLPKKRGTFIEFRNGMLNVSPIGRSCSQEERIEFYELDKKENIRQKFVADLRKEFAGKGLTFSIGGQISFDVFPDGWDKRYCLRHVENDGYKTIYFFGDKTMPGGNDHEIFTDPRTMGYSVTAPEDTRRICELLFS

[35] = target: T1, Kappa-type opioid receptor; experiment: SAR analysis of small molecule agonists of the kappa opioid receptor via a luminescent beta-arrestin assay - Set 3. [Related pubchem assays (depositor defined):AID1777, AID1785, AID1786, AID1966, AID2133, AID2136, AID2284, AID2500]; format: functional

Chain of Exodeoxyribonuclease V (P04993 whole entry): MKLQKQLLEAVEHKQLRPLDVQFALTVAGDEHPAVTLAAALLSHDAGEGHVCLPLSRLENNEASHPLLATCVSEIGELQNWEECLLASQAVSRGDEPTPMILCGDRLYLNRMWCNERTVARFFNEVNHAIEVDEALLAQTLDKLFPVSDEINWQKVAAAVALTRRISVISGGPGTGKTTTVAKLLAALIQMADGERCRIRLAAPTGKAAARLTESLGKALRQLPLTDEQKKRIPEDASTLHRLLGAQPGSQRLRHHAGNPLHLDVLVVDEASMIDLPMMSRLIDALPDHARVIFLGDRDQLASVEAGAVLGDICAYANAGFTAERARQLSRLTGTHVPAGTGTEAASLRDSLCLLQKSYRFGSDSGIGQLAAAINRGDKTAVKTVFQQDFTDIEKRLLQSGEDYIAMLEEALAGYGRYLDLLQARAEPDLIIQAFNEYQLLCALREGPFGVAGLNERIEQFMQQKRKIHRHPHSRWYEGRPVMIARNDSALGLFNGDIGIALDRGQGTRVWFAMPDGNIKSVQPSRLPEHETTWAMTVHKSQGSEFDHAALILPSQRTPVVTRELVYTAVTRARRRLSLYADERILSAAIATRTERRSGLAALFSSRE
Chain of Exodeoxyribonuclease V (P07648 whole entry): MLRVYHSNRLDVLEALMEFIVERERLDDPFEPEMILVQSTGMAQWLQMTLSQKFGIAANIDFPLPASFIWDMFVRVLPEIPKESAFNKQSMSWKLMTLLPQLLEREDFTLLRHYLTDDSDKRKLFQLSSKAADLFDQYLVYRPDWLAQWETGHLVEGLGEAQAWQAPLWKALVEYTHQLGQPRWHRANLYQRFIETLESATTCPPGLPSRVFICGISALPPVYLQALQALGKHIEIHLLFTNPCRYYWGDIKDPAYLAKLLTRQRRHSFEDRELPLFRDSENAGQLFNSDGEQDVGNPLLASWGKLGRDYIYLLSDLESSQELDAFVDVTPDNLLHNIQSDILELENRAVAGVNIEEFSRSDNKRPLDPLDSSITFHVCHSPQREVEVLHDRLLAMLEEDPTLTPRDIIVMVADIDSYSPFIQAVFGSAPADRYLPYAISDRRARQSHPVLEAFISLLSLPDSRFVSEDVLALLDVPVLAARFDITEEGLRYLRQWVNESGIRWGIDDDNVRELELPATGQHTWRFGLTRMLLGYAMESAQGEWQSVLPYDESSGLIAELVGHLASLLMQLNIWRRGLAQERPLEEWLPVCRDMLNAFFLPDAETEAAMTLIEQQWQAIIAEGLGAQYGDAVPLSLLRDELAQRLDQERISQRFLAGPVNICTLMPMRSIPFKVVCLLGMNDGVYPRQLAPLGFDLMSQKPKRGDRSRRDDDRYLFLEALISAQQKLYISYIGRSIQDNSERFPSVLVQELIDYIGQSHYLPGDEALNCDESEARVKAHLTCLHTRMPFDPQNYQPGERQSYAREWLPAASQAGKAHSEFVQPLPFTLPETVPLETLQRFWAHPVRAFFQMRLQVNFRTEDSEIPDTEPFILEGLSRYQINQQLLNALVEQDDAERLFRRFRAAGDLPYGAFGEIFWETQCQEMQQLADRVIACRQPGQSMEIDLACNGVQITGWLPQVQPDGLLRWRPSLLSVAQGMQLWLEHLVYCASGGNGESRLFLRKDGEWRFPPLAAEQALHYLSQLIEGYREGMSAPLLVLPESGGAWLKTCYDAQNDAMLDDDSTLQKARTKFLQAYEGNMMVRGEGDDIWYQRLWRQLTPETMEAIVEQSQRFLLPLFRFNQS
Chain of Exodeoxyribonuclease V (P08394 whole entry): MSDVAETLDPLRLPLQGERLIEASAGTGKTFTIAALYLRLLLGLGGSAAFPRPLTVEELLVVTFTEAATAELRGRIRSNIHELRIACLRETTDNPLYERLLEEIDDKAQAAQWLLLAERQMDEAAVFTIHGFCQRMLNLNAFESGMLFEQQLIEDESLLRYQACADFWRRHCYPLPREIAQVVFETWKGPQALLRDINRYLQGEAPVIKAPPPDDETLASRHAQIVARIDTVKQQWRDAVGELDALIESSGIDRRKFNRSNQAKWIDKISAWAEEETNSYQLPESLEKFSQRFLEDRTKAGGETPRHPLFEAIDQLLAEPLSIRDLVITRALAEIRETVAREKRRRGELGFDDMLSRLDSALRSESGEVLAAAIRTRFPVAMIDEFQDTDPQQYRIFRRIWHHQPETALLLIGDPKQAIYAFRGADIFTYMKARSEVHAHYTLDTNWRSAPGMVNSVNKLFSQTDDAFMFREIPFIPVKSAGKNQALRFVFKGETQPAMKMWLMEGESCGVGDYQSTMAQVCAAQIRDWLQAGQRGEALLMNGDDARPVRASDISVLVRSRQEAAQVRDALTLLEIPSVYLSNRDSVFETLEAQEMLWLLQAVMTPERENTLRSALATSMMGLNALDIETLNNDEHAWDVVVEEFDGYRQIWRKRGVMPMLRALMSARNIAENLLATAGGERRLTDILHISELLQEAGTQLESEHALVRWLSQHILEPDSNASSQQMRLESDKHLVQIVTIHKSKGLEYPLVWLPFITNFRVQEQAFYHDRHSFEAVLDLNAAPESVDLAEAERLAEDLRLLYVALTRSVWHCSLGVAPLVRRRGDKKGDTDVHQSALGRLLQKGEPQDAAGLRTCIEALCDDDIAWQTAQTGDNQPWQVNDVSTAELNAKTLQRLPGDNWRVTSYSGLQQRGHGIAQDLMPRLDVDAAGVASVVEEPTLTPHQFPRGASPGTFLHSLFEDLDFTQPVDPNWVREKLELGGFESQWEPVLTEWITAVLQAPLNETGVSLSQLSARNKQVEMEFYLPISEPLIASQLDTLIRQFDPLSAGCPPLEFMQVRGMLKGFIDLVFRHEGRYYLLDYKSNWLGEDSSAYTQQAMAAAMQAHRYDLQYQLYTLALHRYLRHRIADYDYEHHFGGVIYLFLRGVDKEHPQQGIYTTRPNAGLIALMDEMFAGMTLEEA

For `Cc1cccnc1NC(=O)c1ccc([N+](=O)[O-])o1`, the IC50 [1] was > 119 µM (inactive) and the IC50 [2] was 29.9 µM (inactive).

With `O=C(Nc1nc2ccccc2n1Cc1ccccc1Cl)C1CCCCC1` the IC50 [3] was > 20 µM (inactive), the IC50 [4] was > 20 µM (inactive) and the IC50 [5] was > 20 µM (inactive). The IC50 [6] was > 20 µM (inactive).

For `Cc1ccc2[nH]c(=O)c(CN(C)C(=O)c3ccccn3)cc2c1`, the EC50 [7] was > 10 µM (inactive), the IC50 [8] was > 32 µM (inactive) and the EC50 [9] was > 32 µM (inactive). The EC50 [10] was > 32 µM (inactive), the IC50 [11] was > 32 µM (inactive) and the IC50 [12] was > 32 µM (inactive). For the same molecule, the EC50 [13] was > 32 µM (inactive).

For `O=C(O)CCCN1C(=O)/C(=C/c2ccc(-c3nc4ccccc4s3)o2)SC1=S`, the IC50 [14] was > 100 µM (inactive), the IC50 [15] was 3.69 µM (active) and the IC50 [16] was 4.77 µM (active). The IC50 [17] was 11.2 µM (active), the IC50 [18] was 0.608 µM (active) and the IC50 [19] was 6.14 µM (active). For the same molecule, the IC50 [20] was 34.5 µM (active), the IC50 [21] was 16 µM (active) and the IC50 [22] was 11.5 µM (active). The IC50 [23] was 3.92 µM (active), the IC50 [24] was 11.7 µM (active) and the IC50 [25] was 24.6 µM (active). The IC50 [26] was 5.26 µM (active), the IC50 [27] was 7.71 µM (active) and the EC50 [28] was 3.39 µM (active). The IC50 [29] was 1.63 µM (active), the EC50 [30] was 20.4 µM (active) and the IC50 [31] was 3.1 µM (active). For the same molecule, the IC50 [32] was 4.43 µM (active).

In the case of `CCOc1ccc(-c2nnc(S)o2)cc1`, the IC50 [33] is reported as > 50 µM (inactive) and the IC50 [34] is reported as > 100 µM (inactive).

In the case of `c1ccc(CSc2nnc(-c3ccccn3)n2Cc2ccccc2)cc1`, the EC50 [35] is reported as > 20 µM (inactive).

Source: ChEMBL document CHEMBL1201862, “PubChem BioAssay data set” (2004)
